Tests used:
GRK1 = target: T1, GRK1 (Homo sapiens, UniProt Q15835); assay: biochemical; conditions: read-out: % enzyme activity, 1 μM; Run 1, Run 2
T1 sequence (Q15835 1-563): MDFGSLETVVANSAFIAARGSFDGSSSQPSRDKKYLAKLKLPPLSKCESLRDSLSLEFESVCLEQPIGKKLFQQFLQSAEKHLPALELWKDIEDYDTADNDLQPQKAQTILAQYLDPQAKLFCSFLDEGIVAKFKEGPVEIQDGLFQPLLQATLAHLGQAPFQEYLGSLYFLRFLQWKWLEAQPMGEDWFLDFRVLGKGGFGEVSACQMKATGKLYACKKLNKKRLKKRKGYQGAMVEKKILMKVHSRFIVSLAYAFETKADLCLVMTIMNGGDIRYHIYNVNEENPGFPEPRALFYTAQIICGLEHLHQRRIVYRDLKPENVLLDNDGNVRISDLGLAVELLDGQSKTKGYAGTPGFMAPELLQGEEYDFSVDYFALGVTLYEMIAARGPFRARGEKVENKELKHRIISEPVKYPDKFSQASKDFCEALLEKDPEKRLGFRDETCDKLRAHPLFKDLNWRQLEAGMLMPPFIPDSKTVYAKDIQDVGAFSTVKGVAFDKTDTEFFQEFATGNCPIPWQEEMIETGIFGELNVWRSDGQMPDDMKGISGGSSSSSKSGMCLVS

LIMK1 = LIMK1 (Homo sapiens, UniProt P53667); conditions: 1 μM; Run 1, Run 2
Chain of LIMK1 (P53667 whole entry): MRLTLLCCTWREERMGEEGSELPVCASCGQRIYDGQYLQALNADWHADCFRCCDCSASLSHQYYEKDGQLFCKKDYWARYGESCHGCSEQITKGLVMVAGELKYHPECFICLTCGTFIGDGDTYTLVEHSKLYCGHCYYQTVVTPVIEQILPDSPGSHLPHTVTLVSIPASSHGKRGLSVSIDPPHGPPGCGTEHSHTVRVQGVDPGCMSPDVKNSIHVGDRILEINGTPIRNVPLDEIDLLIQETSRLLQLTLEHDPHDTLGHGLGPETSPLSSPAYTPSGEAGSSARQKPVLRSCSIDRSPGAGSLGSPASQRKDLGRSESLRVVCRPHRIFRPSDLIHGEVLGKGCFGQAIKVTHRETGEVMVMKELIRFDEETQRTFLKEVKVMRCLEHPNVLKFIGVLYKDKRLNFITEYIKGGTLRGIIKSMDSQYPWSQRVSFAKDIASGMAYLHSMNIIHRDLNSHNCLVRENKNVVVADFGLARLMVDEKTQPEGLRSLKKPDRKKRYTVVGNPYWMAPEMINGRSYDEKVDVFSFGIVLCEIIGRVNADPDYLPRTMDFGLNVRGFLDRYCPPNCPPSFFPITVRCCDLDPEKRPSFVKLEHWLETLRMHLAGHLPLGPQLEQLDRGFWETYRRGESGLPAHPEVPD

CDK4/cyclin D3 = CDK4/cyclin D3 (Homo sapiens, UniProt P11802); assay: biochemical; conditions: read-out: % enzyme activity, 1 μM; Run 1, Run 2
Chain of CDK4/cyclin D3 (P11802 whole entry): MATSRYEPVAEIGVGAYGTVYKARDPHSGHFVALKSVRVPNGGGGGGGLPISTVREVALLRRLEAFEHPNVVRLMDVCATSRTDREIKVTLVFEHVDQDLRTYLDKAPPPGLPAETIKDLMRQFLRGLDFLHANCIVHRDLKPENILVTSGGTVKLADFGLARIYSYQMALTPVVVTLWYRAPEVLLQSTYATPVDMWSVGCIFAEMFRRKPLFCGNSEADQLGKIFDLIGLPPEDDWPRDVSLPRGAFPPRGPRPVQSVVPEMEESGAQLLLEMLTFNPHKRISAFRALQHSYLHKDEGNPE
Chain of CDK4/cyclin D3 (P30281 whole entry partner): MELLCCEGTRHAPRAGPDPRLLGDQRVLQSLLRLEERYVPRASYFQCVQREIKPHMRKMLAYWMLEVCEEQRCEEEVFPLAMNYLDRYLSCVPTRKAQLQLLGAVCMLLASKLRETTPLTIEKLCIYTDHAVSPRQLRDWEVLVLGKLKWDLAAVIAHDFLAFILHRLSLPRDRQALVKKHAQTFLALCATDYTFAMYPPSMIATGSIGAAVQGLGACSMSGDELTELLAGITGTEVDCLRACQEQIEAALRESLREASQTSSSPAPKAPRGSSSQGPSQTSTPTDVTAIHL

FYN = FYN (Homo sapiens, UniProt P06241); conditions: 1 μM; Run 1, Run 2
Chain of FYN (P06241 whole entry): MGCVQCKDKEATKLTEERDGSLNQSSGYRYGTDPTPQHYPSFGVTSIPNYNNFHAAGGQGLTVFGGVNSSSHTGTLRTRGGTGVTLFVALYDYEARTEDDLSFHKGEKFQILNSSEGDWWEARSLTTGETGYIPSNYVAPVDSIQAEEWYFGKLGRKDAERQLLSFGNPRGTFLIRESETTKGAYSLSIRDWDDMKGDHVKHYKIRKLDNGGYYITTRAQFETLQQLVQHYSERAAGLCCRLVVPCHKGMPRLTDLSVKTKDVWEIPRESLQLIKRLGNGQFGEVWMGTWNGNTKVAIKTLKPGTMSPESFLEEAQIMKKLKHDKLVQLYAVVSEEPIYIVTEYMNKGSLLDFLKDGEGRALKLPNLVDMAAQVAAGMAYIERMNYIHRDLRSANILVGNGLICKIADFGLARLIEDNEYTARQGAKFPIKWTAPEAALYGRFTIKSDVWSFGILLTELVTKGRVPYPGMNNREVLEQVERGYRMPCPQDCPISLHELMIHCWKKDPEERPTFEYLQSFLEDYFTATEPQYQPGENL

IGF1R = IGF1R (Homo sapiens, UniProt P08069); assay: biochemical; conditions: read-out: % enzyme activity, 1 μM; Run 1, Run 2
Chain of IGF1R (P08069 31-1367): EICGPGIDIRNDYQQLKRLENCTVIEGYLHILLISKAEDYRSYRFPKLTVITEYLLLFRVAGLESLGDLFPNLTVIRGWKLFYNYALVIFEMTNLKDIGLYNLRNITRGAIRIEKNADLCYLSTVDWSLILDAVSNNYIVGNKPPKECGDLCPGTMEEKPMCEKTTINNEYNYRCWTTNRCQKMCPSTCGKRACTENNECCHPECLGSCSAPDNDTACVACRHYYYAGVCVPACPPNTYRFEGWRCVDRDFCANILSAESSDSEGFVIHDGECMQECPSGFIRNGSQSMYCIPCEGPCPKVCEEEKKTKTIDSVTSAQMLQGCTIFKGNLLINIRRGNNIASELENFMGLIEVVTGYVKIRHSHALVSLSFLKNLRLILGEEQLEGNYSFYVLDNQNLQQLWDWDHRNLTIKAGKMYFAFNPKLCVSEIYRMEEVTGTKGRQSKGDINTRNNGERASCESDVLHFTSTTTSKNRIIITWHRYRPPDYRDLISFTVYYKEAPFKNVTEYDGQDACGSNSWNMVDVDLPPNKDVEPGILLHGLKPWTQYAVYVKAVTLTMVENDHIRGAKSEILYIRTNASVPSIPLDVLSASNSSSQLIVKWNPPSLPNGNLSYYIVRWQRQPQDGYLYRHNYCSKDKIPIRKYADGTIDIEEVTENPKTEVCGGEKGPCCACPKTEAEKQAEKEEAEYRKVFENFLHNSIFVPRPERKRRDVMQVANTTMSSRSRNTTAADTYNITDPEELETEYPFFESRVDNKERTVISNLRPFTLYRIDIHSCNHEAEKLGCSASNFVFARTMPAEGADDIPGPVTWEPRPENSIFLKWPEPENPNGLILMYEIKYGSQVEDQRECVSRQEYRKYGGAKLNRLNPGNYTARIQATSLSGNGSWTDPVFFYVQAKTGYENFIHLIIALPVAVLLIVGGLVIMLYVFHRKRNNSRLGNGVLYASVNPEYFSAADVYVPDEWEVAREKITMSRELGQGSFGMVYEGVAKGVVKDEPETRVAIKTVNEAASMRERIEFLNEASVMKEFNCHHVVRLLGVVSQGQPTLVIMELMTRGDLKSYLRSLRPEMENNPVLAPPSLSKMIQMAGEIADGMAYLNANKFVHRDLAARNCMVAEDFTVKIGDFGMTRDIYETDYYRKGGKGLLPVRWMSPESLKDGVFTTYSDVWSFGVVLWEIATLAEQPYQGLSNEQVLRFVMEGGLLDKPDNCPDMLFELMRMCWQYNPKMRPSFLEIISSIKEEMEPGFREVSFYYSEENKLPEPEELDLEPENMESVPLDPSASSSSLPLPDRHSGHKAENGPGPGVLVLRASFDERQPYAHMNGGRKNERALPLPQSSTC

ABL1 = ABL1 (Homo sapiens, UniProt P00519); assay: biochemical; conditions: read-out: % enzyme activity, 1 μM; Run 1, Run 2
Chain of ABL1 (P00519 whole entry): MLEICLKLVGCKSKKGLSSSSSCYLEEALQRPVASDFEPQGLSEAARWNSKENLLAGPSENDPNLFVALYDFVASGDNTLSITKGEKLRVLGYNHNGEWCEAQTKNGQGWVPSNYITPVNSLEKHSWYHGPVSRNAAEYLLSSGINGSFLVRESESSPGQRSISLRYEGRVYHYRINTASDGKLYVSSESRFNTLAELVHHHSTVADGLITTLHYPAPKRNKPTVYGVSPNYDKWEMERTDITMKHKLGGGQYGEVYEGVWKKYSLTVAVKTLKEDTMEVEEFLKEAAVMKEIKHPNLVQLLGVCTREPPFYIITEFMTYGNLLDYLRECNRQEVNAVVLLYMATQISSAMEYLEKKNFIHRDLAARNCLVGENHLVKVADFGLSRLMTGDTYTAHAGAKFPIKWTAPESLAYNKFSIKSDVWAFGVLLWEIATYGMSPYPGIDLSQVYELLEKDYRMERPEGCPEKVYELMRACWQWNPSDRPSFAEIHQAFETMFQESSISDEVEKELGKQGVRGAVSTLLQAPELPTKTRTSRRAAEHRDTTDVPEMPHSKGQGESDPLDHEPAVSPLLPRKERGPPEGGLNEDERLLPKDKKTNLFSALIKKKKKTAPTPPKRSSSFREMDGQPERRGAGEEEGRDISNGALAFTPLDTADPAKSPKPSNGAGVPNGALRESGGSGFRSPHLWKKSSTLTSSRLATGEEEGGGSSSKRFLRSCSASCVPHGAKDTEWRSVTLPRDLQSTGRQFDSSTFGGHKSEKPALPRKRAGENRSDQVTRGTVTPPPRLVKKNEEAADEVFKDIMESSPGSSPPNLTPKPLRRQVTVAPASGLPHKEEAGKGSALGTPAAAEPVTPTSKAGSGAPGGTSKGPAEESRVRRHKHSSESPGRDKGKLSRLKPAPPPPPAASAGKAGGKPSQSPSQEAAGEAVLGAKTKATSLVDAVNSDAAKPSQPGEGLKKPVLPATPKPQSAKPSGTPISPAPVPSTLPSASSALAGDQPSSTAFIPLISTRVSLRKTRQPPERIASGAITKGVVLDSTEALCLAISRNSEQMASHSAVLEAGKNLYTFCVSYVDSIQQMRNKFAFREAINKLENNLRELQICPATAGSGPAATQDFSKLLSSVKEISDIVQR

NEK8 = target: T2, NEK8 (Homo sapiens, UniProt Q86SG6); assay: biochemical; conditions: read-out: % enzyme activity, 1 μM; Run 1, Run 2
T2 sequence (Q86SG6 1-692): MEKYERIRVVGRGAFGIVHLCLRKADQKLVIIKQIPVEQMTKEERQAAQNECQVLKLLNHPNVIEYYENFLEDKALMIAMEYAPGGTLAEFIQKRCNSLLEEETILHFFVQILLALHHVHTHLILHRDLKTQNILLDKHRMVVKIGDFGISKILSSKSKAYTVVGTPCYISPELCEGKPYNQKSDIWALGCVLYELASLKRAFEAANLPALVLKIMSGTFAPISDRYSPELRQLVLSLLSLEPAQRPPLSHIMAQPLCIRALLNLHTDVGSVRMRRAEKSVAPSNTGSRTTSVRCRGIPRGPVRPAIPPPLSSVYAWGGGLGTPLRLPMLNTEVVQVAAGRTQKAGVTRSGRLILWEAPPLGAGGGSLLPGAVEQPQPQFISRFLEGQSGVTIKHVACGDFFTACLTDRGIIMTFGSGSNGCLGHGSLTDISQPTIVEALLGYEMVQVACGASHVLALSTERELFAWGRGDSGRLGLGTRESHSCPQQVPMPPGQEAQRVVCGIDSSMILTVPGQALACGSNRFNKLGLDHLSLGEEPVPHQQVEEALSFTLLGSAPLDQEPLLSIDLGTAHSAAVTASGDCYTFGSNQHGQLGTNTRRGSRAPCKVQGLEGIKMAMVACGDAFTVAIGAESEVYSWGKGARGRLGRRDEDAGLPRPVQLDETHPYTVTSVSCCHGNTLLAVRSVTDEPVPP

MSK1/RPS6KA5 = MSK1/RPS6KA5 (Homo sapiens, UniProt O75582); assay: biochemical; conditions: read-out: % enzyme activity, 1 μM; Run 1, Run 2
Chain of MSK1/RPS6KA5 (O75582 whole entry): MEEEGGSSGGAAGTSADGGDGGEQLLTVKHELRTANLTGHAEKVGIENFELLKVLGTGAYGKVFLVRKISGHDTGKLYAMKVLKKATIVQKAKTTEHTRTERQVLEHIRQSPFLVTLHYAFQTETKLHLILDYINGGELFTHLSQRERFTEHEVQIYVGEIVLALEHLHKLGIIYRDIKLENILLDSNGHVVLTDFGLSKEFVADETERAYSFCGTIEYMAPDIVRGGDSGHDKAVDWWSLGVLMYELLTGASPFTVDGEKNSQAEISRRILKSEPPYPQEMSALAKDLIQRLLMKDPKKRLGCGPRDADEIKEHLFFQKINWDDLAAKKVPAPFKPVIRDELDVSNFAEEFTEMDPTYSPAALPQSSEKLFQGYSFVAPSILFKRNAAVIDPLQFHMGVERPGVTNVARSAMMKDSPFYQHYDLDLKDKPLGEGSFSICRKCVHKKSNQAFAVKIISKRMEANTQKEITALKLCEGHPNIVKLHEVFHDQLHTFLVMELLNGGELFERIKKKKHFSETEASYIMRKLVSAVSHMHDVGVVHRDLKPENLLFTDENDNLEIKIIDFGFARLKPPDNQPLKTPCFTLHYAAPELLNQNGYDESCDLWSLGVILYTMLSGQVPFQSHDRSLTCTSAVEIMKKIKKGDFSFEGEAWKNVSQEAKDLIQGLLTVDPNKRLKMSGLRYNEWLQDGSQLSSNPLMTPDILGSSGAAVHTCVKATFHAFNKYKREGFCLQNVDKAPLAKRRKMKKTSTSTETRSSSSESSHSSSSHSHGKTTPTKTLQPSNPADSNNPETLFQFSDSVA

MST1/STK4 = target: T3, MST1/STK4 (Homo sapiens, UniProt Q13043); conditions: 1 μM; Run 1, Run 2
T3 sequence (Q13043 1-487): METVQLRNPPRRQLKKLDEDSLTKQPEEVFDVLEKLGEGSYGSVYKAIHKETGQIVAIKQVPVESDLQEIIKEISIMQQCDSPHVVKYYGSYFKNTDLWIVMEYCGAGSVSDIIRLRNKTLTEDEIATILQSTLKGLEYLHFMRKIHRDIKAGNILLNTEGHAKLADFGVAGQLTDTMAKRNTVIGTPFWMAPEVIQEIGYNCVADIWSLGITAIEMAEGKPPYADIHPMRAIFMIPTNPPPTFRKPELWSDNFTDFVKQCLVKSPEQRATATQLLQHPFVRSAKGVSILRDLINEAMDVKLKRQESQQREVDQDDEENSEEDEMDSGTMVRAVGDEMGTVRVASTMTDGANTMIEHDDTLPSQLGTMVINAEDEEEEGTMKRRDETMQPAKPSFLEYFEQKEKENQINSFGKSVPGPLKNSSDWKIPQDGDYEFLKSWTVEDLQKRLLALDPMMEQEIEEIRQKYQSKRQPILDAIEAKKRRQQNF

Row | Structure (SMILES) | remaining activity at 1 µM (GRK1) [%] | % enzyme activity (LIMK1) [%] | remaining activity at 1 µM (CDK4/cyclin D3) [%] | % enzyme activity (FYN) [%] | remaining activity at 1 µM (IGF1R) [%] | remaining activity at 1 µM (ABL1) [%] | remaining activity at 1 µM (NEK8) [%] | remaining activity at 1 µM (MSK1/RPS6KA5) [%] | % enzyme activity (MST1/STK4) [%]
1 | COc1cc(-c2cncc(-c3ccc(N4C[C@@H](C)N(C)[C@@H](C)C4)cc3)c2C)cc(F)c1C(N)=O [Compound 26c, 2-Fluoro-6-methoxy-4-(4-methyl-5-(4-((3R,5S)-3,4,5-trimethylpiperazin-1-yl)phenyl)pyridin-3-yl)benzamide] | 95.3 | 72.63 | 96 | 96.30 | 96.1 | 83.9 | 109 | 90.5 | 101.65
2 | COc1cc(-c2cncc(-c3ccc(N4CCN(C)CC4)cc3)c2C)cc(F)c1C(N)=O [Compound 26a, 2-Fluoro-6-methoxy-4-(4-methyl-5-(4-(4-methylpiperazin-1-yl)phenyl)pyridin-3-yl)benzamide] | 94 | 64.18 | 101 | 97.69 | 99.2 | 75.2 | 98.4 | 87.1 | 100.26

Source: paper PMC8213057, “Targeting ALK2: An Open Science Approach to Developing Therapeutics for the Treatment of Diffuse Intrinsic Pontine Glioma” (Journal of Medicinal Chemistry, 2020)
